According to US12649750B2, “Macrocyclic compounds, compositions, and methods of using thereof” (Sionna Therapeutics Inc., priority 2022, dated 2026):

Columns and labels:
NBD1 = biological target: T1, NBD1 (Homo sapiens, UniProt P13569); experiment: Aggregation analysis using differential static light scattering (DSLS), thermal stability of NBD1 (ΔTagg); type: binding; details: ΔTagg versus DMSO control, NBD1 0.2 mg/ml
T1 construct: Purified recombinant NBD1 was produced using previously described methods; made in house
T1 sequence (P13569 423-646 limits assumed): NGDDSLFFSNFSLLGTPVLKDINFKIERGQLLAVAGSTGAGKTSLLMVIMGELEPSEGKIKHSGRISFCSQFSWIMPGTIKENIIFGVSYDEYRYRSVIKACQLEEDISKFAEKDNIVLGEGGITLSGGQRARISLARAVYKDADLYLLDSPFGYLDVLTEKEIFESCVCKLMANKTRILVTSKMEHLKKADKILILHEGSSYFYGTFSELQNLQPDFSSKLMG
Summary of the method: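 Differential static light scattering read from 25° C. to 70° C. every 0.5° C., ramp 1° C./min, on recombinant NBD1 (0.2 mg/ml; Tris/NaCl/MgCl2 buffer with 2 mM ATP, 2 mM DTT, pH 7.6, 1% glycerol) plus compound. Reported ΔTagg subtracts averaged DMSO Tagg from inflection-point Tagg; categories A ≤5, B >5-10, C >10-25° C.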

CFTR = biological target: T2, CFTR (Homo sapiens, UniProt P13569, DEL508-508); experiment: TECC24 AUC fold over DMSO @10 μM, CFTR-mediated transepithelial chloride transport in CF-HBE cells; type: cell-based; details: test agent AUC divided by DMSO vehicle AUC, primary CF-HBE cells, ΔF508 homozygous donor, 48 hours incubation
T2 construct: Primary human bronchial epithelial cells from a ΔF508 homozygous CF donor; host or cells: primary human bronchial epithelial cells (CF-HBE), ΔF508 homozygous donor
T2 sequence (P13569 with tags, fused parts or gaps DEL508-508): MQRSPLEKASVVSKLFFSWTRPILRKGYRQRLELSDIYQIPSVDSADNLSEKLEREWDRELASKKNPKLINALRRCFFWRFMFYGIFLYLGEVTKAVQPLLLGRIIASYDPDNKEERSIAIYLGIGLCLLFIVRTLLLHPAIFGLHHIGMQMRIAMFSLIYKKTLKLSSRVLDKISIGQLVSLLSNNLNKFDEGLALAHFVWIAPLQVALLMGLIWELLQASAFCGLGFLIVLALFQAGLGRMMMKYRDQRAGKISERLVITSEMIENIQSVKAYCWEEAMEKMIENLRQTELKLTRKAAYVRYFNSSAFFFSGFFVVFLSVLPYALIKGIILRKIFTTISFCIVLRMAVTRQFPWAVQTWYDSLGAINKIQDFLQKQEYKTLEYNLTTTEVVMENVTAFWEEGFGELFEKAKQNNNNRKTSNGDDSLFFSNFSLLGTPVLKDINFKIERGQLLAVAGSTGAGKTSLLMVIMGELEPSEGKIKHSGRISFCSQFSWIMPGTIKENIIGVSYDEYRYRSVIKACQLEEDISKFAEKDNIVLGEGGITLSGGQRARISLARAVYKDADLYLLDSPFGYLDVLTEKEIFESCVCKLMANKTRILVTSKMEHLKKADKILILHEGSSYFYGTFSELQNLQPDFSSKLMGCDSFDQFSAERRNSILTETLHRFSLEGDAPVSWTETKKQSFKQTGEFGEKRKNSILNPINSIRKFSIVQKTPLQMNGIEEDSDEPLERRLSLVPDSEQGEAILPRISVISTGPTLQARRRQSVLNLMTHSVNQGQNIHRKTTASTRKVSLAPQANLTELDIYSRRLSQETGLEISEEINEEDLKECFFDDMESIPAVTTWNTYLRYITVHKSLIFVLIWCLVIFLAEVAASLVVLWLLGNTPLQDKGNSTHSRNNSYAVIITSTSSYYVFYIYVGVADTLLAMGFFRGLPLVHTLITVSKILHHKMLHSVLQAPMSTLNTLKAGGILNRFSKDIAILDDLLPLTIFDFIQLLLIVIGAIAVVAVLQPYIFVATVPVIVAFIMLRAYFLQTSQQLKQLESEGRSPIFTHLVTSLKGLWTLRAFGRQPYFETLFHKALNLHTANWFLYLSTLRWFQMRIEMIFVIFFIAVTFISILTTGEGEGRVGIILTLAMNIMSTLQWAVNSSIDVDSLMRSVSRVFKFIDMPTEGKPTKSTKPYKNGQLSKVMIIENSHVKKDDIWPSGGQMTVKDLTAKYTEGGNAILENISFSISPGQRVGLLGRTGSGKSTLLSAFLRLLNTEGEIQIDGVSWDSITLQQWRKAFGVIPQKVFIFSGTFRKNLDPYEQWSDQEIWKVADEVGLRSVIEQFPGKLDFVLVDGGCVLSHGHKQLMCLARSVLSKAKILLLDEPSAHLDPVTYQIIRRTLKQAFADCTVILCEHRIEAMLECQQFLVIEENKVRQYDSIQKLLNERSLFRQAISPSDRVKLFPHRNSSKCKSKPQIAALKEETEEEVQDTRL
Summary of the method: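 Value is ratio of test-agent to DMSO AUC of equivalent transepithelial Cl− current, integrated from forskolin (10 μM) stimulation to CFTR inhibitor-172 (20 μM) block, with benzamil 10 μM present. CF-HBE (ΔF508/ΔF508) cultures had 48 h compound exposure at 10 μM, 36.5° C before recording.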

Row | SMILES | DSLS 3D (100 μM ΔT) (NBD1) | TECC (AUC, 10 μM) (CFTR)
1 | Cn1nc2nc1-c1cncc(c1)Oc1c(F)cc3[nH]ccc3c1CCS(=O)(=O)CC(C)(C)CCC[C@]2(C)c1cccc(CCC(=O)O)c1 [Compound 252, 3-[3-[(6R)-22-Fluoro-3,6,10,10-tetramethyl-12,12-dioxo-24-oxa-12λ6-thia-3,4,19,27,30-pentazapentacyclo[23.3.1.12,5.015,23.016,20]triaconta-1(29),2(30),4,15(23),16(20),17,21,25,27-nonaen-6-yl]phenyl]propanoic Acid] | C (a value greater than 10 °C and less than or equal to 25 °C is marked “C”) | C (a value between 20 and 80 is marked “C”)
2 | C[C@@H](Cc1cccc([C@@]2(C)CCCC(C)(C)CS(=O)(=O)CCc3c(c(F)cc4[nH]ccc34)Sc3ccnc(c3)-c3nc2nn3C)c1)C(=O)O [Compound 253, (2S)-3-[3-[(6R)-22-fluoro-3,6,10,10-tetramethyl-12,12-dioxo-12λ6,24-dithia-3,4,19,28,30-pentazapentacyclo[23.3.1.12,5.015,23.016,20]triaconta-1(29),2(30),4,15,17,20,22,25,27-nonaen-6-yl]phenyl]-2-methyl-propanoic Acid] | C (a value greater than 10 °C and less than or equal to 25 °C is marked “C”) | B (a value between 12-20 is marked “B”)
3 | C[C@@H](Cc1cccc([C@@]2(C)CCCC(C)(C)CS(=O)(=O)CCc3c(c(F)cc4[nH]ccc34)Oc3cnnc(c3)-c3nc2nn3C)c1)C(=O)O [Compound 256, (2S)-3-[3-[(6R)-22-Fluoro-3,6,10,10-tetramethyl-12,12-dioxo-24-oxa-12λ6-thia-3,4,19,27,28,30-hexazapentacyclo[23.3.1.12,5.015,23.016,20]triaconta-1(29),2(30),4,15,17,20,22,25,27-nonaen-6-yl]phenyl]-2-methyl-propanoic Acid] | C (a value greater than 10 °C and less than or equal to 25 °C is marked “C”) | C (a value between 20 and 80 is marked “C”)
4 | Cn1nc2nc1-c1cc(ccn1)Oc1c(F)c(F)c3[nH]ccc3c1CCS(=O)(=O)CC(C)(C)CCC[C@]2(C)c1cccc(CC(=O)O)c1 [Compound 257, 2-[3-[(6R)-21,22-difluoro-3,6,10,10-tetramethyl-12,12-dioxo-24-oxa-12λ6-thia-3,4,19,28,30-pentazapentacyclo[23.3.1.12,5.015,23.016,20]triaconta-1(29),2(30),4,15,17,20,22,25,27-nonaen-6-yl]phenyl]acetic Acid] | C (a value greater than 10 °C and less than or equal to 25 °C is marked “C”) | B (a value between 12-20 is marked “B”)
5 | Cn1nc2nc1-c1cc(ccn1)Oc1c(F)c(F)c3[nH]ccc3c1CCS(=O)(=O)CC(C)(C)CCC[C@]2(C)c1cccc(CCO)c1 [Compound 258, 2-[3-[(6R)-21,22-Difluoro-3,6,10,10-tetramethyl-12,12-dioxo-24-oxa-12λ6-thia-3,4,19,28,30-pentazapentacyclo[23.3.1.12,5.015,23.016,20]triaconta-1(29),2(30),4,15,17,20,22,25,27-nonaen-6-yl]phenyl]ethanol] | C (a value greater than 10 °C and less than or equal to 25 °C is marked “C”) | C (a value between 20 and 80 is marked “C”)
6 | C[C@@H](Cc1cccc([C@@]2(C)CCCC(C)(C)CS(=O)(=O)CCc3c(c(F)c(F)c4[nH]ccc34)Oc3ccnc(c3)-c3nc2nn3C)c1)C(=O)O [Compound 262, (2S)-3-[3-[(6R)-21,22-Difluoro-3,6,10,10-tetramethyl-12,12-dioxo-24-oxa-12λ6-thia-3,4,19,28,30-pentazapentacyclo[23.3.1.12,5.015,23.016,20]triaconta-1(29),2(30),4,15,17,20,22,25,27-nonaen-6-yl]phenyl]-2-methyl-propanoic Acid] | C (a value greater than 10 °C and less than or equal to 25 °C is marked “C”) | C (a value between 20 and 80 is marked “C”)
7 | C[C@@H](O)Cc1cccc([C@@]2(C)CCCC(C)(C)CS(=O)(=O)CCc3c(c(F)cc4[nH]ccc34)Sc3ccc(F)c(c3)-c3nc2nn3C)c1 [Compound 263, (2R)-1-[3-[(6R)-22,28-difluoro-3,6,10,10-tetramethyl-12,12-dioxo-12λ6,24-dithia-3,4,19,30-tetrazapentacyclo[23.3.1.12,5.015,23.016,20]triaconta-1(29),2(30),4,15,17,20,22,25,27-nonaen-6-yl]phenyl]propan-2-ol] | B (a value above 5 °C and less than or equal to 10 °C is marked “B”) | C (a value between 20 and 80 is marked “C”)
8 | COC(=O)[C@H](C)Cc1cccc([C@@]2(C)CCCC(C)(C)CS(=O)(=O)CCc3c(c(F)cc4[nH]ccc34)Oc3cnnc(c3)-c3nc2nn3C)c1 [Compound 265, Methyl (2R)-3-[3-[(6R)-22-fluoro-3,6,10,10-tetramethyl-12,12-dioxo-24-oxa-12λ6-thia-3,4,19,27,28,30-hexazapentacyclo[23.3.1.12,5.015,23.016,20]triaconta-1(29),2(30),4,15,17,20,22,25,27-nonaen-6-yl]phenyl]-2-methyl-propanoate] | B (a value above 5 °C and less than or equal to 10 °C is marked “B”) | C (a value between 20 and 80 is marked “C”)
9 | C[C@@H](Cc1cccc([C@@]2(C)CCCC(C)(C)CS(=O)(=O)CCc3c(c(F)c(F)c4[nH]ccc34)[S+]([O-])c3ccnc(c3)-c3nc2nn3C)c1)C(=O)O (stereo partly drawn) [Compound 267, (2S)-3-[3-[(6R)-21,22-Difluoro-3,6,10,10-tetramethyl-12,12,24-trioxo-12λ6,24λ4-dithia-3,4,19,28,30-pentazapentacyclo[23.3.1.12,5.015,23.016,20]triaconta-1(29),2(30),4,15,17,20,22,25,27-nonaen-6-yl]phenyl]-2-methyl-propanoic Acid] | C (a value greater than 10 °C and less than or equal to 25 °C is marked “C”) | C (a value between 20 and 80 is marked “C”)
10 | C[C@@H](Cc1cccc([C@@]2(C)CCCC(C)(C)CS(=O)(=O)CCc3c(c(F)c(F)c4[nH]ccc34)Sc3ccnc(c3)-c3nc2nn3C)c1)C(=O)O [Compound 268, (2S)-3-[3-[(6R)-21,22-Difluoro-3,6,10,10-tetramethyl-12,12-dioxo-12λ6,24-dithia-3,4,19,28,30-pentazapentacyclo[23.3.1.12,5.015,23.016,20]triaconta-1(29),2(30),4,15,17,20,22,25,27-nonaen-6-yl]phenyl]-2-methyl-propanoic Acid] | C (a value greater than 10 °C and less than or equal to 25 °C is marked “C”) | B (a value between 12-20 is marked “B”)
11 | C[C@H](Cc1cccc([C@@]2(C)CCCC(C)(C)CS(=O)(=O)CCc3c(c(F)c(F)c4[nH]ccc34)Sc3ccnc(c3)-c3nc2nn3C)c1)C(=O)O [Compound 270, (2R)-3-[3-[(6R)-21,22-difluoro-3,6,10,10-tetramethyl-12,12-dioxo-12λ6,24-dithia-3,4,19,28,30-pentazapentacyclo[23.3.1.12,5.015,23.016,20]triaconta-1(29),2(30),4,15,17,20,22,25,27-nonaen-6-yl]phenyl]-2-methyl-propanoic Acid] | C (a value greater than 10 °C and less than or equal to 25 °C is marked “C”) | B (a value between 12-20 is marked “B”)
12 | Cn1nc2nc1-c1cc(ccn1)Sc1c(F)cc3[nH]ccc3c1CCS(=O)(=O)CC(C)(C)CCC[C@]2(C)c1cccc(CC2(C(=O)O)CC2)c1 [Compound 272, 1-[[3-[(6R)-22-Fluoro-3,6,10,10-tetramethyl-12,12-dioxo-12λ6,24-dithia-3,4,19,28,30-pentazapentacyclo[23.3.1.12,5.015,23.016,20]triaconta-1(29),2(30),4,15,17,20,22,25,27-nonaen-6-yl]phenyl]methyl]cyclopropanecarboxylic Acid] | C (a value greater than 10 °C and less than or equal to 25 °C is marked “C”) | C (a value between 20 and 80 is marked “C”)
13 | Cn1nc2nc1-c1cc(ccn1)Sc1c(F)cc3[nH]ccc3c1CCS(=O)(=O)CC(C)(C)CCC[C@]2(C)c1cccc(CC(C)(C)C(=O)O)c1 [Compound 273, 3-[3-[(6R)-22-Fluoro-3,6,10,10-tetramethyl-12,12-dioxo-12λ6,24-dithia-3,4,19,28,30-pentazapentacyclo[23.3.1.12,5.015,23.016,20]triaconta-1(29),2(30),4,15,17,20,22,25,27-nonaen-6-yl]phenyl]-2,2-dimethyl-propanoic Acid] | C (a value greater than 10 °C and less than or equal to 25 °C is marked “C”) | B (a value between 12-20 is marked “B”)
14 | Cn1nc2nc1-c1cc(ccn1)Sc1c(F)c(F)c3[nH]ccc3c1CCS(=O)(=O)CC(C)(C)CCC[C@]2(C)c1cccc(CC(C)(C)C(=O)O)c1 [Compound 275, 3-[3-[(6R)-21,22-Difluoro-3,6,10,10-tetramethyl-12,12-dioxo-12λ6,24-dithia-3,4,19,28,30-pentazapentacyclo[23.3.1.12,5.015,23.016,20]triaconta-1(29),2(30),4,15,17,20,22,25,27-nonaen-6-yl]phenyl]-2,2-dimethyl-propanoic Acid] | C (a value greater than 10 °C and less than or equal to 25 °C is marked “C”) | C (a value between 20 and 80 is marked “C”)
